In patent US20080220497A1, “Modulation of protein functionalities” (priority 2003, published 2008):
pEC50, pIC50: −log10 of the molar value.

How the values were obtained:
[1] = target: T1, unphosphorylated p38-alpha kinase (Homo sapiens, UniProt Q16539, DEL261-261); assay: Thermal denaturation of unphosphorylated p38-alpha kinase; format: binding; details: […] p38-alpha kinase, 15 μM small molecule
T1 construct: 48 (6×His-TEV tag, full length); 6×His-TEV tag (N); purchased Decode Genetics, Inc; host or cells: E. coli
T1 sequence (Q16539 with tags, fused parts or gaps DEL261-261): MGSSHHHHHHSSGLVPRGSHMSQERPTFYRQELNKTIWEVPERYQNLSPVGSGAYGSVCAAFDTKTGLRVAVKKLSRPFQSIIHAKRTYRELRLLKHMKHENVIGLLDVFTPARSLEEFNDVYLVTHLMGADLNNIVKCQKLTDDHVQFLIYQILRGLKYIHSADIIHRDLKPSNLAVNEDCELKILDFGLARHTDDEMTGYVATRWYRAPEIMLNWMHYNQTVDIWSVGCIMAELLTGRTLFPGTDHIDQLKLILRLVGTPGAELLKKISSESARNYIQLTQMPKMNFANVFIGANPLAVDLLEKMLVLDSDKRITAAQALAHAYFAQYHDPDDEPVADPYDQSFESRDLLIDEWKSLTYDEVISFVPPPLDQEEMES
From the text: (§1) Denaturation was monitored by measuring the absolute absorbance of the solutions at an appropriate wavelength (typically 230 nm and 240 nm) as a function of temperature. As the protein became denatured, additional UV absorbing functional groups became exposed causing an increase in absorbance at the melting temperature. […] The thermal data were collected using Agilent spectrophotometers and ChemStation UV/Vis Thermal Denaturation software.
The final protein and buffer solution was mixed gently using a pipetter to minimize denaturing due to over aggressive mixing. The final solution was transferred to a 50 μL cuvette for analysis.
(§2) The final solution was transferred to a 50 μL cuvette for analysis.
(§3) A first derivative calculation with data smoothing was applied to the resulting data to report the point of inflection as the melting temperature.

[2] = target: T2, doubly phosphorylated p38-alpha kinase (Homo sapiens, UniProt Q16539); assay: Fluorescence affinity assay, doubly phosphorylated p38-alpha kinase; format: binding; details: ~24 nM enzyme; 1.0 uM SKF-86002; read-out: FP IC50 P-p38-alpha
T2 construct: 6xHis ([…], seen only in the listing) (C); purchased Roche Applied Diagnostics
T2 sequence (Q16539 with tags, fused parts or gaps): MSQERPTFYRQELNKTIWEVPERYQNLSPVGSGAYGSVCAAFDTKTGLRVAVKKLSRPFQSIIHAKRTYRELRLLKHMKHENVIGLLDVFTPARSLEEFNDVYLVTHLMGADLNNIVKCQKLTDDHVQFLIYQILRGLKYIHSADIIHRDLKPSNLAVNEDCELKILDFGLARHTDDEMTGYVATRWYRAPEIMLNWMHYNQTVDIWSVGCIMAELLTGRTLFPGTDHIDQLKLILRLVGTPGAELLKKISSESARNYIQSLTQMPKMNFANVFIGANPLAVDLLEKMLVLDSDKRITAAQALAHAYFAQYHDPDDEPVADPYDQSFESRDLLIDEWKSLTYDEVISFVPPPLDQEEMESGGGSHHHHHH
From the text: (§4) This fluorescence affinity assay is utilized in an affinity-based screen to identify small molecules which bind into switch control pockets of protein kinases. Binding of small molecule switch inhibitors displaces the switch control ligand phenylalanine of the DFG motif into an orientation which sterically blocks the ATP pocket. Such inhibitor-induced blockade of the ATP pocket is registered as an inhibition of binding of the fluoroprobe into the ATP pocket.
(§5) • 1. p38-alpha kinase • a. […] Polarstar Optima plate reader (BMG)
• 1. […] This dilution can be done automatically on a Tecan (or similar) robotic workstation or performed manually. • 3. Mix Solution A with the diluted compound solutions following Step 3 of Table 22. This step can be performed automatically on a Tecan (or similar) robotic workstation or performed manually. • 4. Incubate at 30° C. or room temp for 2 h, depending on protein stability. • 5. Read at emission wavelength 420 nm upon excitation at 340 nm. […]
(§6) A ratio greater than 1.0 indicates a preference for inhibiting the unphosphorylated form of p38-alpha kinase relative to the doubly phosphorylated form. A ratio less than 1.0 indicates a preference for inhibiting the doubly phosphorylated form of p38-alpha kinase relative to the unphosphorylated form.

[3] = target: T2, doubly phosphorylated p38-alpha kinase; assay: Thermal denaturation of doubly phosphorylated p38-alpha kinase; format: binding; details: 0.5 μM p38-alpha kinase, 20 μM small molecule
Protocol: as §1
The final concentration was 0.5 μM p38-alpha kinase and 20 μM small molecule. The final protein and buffer solution was mixed gently using a pipetter to minimize denaturing due to over aggressive mixing. The final solution was transferred to a 50 μL cuvette for analysis.
The protein and buffer solution was mixed gently using a pipetter to minimize denaturing due to over aggressive mixing. The final solution was transferred to a 50 μL cuvette for analysis.
as §3

Phospho-p38-alpha kinase = target: T3, Phospho-p38-alpha kinase (Homo sapiens, UniProt Q16539); assay: Spectrophotometric assay for phospho-p38-alpha kinase; details: p38-alpha kinase biochemical assay
T3 construct: 6xHis ([…], seen only in the listing) (C); purchased Roche Applied Diagnostics
T3 sequence (Q16539 with tags, fused parts or gaps): as above
Protocol: Spectrophotometric Assay for Phospho-p38-alpha Kinase
NADH (Sigma): 5.6 mM • 5. Phosphoenol pyruvate (Sigma): 20 mM • 6. […] ATP (20 mM) • 8. […] Polarstar Optima plate reader (BMG)
IC50 determinations were performed using a serial dilution scheme to dilute inhibitor in DMSO, followed by further dilution in reaction buffer, and finally mixing with Mixture 1 (Table 29) which contains all the enzymes. The dilution procedure ensured that the test compound at various concentrations was properly dissolved into the buffer and enzyme reaction mixture.
Prepare Mixture 1 as described in Table 29 (use within 30 min) • 3. Mix the diluted compound with Mixture 1 following Step 3 of Table 28 • 4. Incubate the 384-well plate at 30° C. for 2 hours • 5. Add 1 μL of 30 mM ATP into each well and mix well • 6. Read on the microplate reader with one point every min for at least 2.5 hours at 30° C.
A linear regression was applied to data collected from t=1.5 hr to 2.5 hr to obtain the reaction rate for each data set. The data were approximately linear within this time frame. Percentage of inhibition was calculated by comparison of the rate in the presence of a compound with that of the control. IC50 values were calculated from a series of % inhibition values determined at a range of inhibitor concentrations using GraphPad Prism (version 4).

[4] = target: T1, unphosphorylated p38-alpha kinase; assay: Fluorescence affinity assay, unphosphorylated p38-alpha kinase; format: binding
From the text: as §4, §5
• 1. […] This dilution can be done automatically on a Tecan (or similar) robotic workstation or performed manually. • 3. Mix Solution A with the diluted compound solutions following Step 3 of Table 22. This step can be performed automatically on a Tecan (or similar) robotic workstation or performed manually. • 4. Incubate at 30° C. or room temp for 2 h, depending on protein stability. • 5. Read at emission wavelength 420 nm upon excitation at 340 nm.
The reaction was initiated by addition of the enzyme. […] By comparison of RFU (relative fluorescence units) values with that of a control (in the absence of small molecule modulators), the percentage of inhibition at each concentration of the small molecules was calculated. IC50 values for the small molecule modulators were calculated from the % inhibition values obtained at a range of concentrations of the small molecule modulators using Prism (available from GraphPad, Inc.). When time-dependent inhibition was assessed, the plate was read at multiple reaction times such as 0.5, 1, 2, 3, 4 and 6 hours. The IC50 values were calculated at each time point. An inhibition was assigned as time-dependent if the IC50 values decrease with the reaction time (more than two-fold in four hours).
as §6

Abl kinase = assay: Thermal denaturation of Abl kinase; format: binding, human; details: 1 μM Abl kinase, 20 μM small molecule
Protocol: as §1
5 μL of 40 μM Abl kinase was mixed with 195 μL of the small molecule/buffer solution. The final concentration was 1 μM Abl kinase and 20 μM small molecule. The final protein and buffer solution was mixed gently using a pipetter to minimize denaturing due to over aggressive mixing. The final solution was transferred to a 50 μL cuvette for analysis.
Test solutions containing only the Abl kinase were prepared as follows: 5 μL of 40 μM Abl kinase was mixed with 195 μL Buffer to give a concentration of 1 μM Abl kinase in Buffer. The protein and buffer solution was mixed gently using a pipetter to minimize denaturing due to over aggressive mixing. The final solution was transferred to a 50 μL cuvette for analysis.
as §3

c-Abl kinase [5] = target: T4, c-Abl kinase (Homo sapiens, UniProt P00519); assay: Fluorescence affinity assay for Abl kinase (PD 166326 fluoroprobe); format: binding; details: read-out: EC50 for accelerating the binding of fluoroprobe PD 166326; c-Abl kinase; early time-point binding
T4 construct: other: c-Abl kinase
T4 sequence (P00519 1-1149 isoform P00519-2): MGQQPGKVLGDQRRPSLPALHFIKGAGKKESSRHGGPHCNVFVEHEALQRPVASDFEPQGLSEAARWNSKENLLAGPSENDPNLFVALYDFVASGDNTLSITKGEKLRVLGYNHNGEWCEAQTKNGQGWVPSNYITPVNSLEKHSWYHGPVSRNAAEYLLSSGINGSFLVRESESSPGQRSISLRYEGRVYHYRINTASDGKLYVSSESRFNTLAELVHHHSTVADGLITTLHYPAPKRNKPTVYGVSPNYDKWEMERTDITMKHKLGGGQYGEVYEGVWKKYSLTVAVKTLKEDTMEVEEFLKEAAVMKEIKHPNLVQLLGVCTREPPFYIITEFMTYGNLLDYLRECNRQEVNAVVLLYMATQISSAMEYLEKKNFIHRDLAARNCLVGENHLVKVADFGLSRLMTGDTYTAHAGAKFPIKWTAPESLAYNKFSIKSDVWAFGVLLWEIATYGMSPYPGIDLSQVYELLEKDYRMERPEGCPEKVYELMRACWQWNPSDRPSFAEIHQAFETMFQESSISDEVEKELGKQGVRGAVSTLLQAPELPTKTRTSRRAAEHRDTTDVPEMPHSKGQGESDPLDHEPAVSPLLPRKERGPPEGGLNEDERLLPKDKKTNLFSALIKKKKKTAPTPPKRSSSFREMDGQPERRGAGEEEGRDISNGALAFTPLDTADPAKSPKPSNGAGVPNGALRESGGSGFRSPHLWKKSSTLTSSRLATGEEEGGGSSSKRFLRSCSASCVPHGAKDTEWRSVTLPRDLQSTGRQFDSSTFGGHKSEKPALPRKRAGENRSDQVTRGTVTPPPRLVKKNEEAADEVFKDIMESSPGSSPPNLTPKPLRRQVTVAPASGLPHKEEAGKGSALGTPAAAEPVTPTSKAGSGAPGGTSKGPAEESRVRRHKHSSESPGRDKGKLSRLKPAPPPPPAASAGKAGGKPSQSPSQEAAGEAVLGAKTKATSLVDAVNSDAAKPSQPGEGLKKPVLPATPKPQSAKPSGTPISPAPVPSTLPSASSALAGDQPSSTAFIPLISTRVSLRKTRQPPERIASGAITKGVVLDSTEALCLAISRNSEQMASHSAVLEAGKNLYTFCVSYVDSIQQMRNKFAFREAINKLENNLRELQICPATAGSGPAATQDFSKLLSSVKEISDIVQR
Protocol: (§7) Tris buffer: 90 mM Tris-HCl buffer, pH 7.5, containing 0.2% octyl-glucoside • 4. […] Polarstar Optima plate reader (BMG) or equivalent
(§8) B. Procedure: • 1. Make Solution A containing 80 nM Abl in the Tris buffer • 2. Serially dilute test compounds in Solution A (50 uL per well) • 3. Incubate the plate at room temp for 0.5 h • 4.
(§9) Abl kinase was preincubated with test compounds for […] in the absence of fluoroprobe. […] By comparison of RFU (relative fluorescence units) values with that of a control (in the absence of small molecule modulators), the percentage of modulation at each concentration of the small molecules was calculated.

c-Abl kinase [6] = assay: as above; format: binding, human; details: 100 nM PD 166326, 40 nM Abl kinase
Protocol: as §7, §8, §9

V599E Braf kinase = target: T5, V599E Braf kinase (Homo sapiens, UniProt P15056, V600E); assay: Thermal denaturation of oncogenic V599E Braf kinase; format: binding; details: 1.4 μM V599E Braf kinase, 20 μM small molecule; read-out: ΔTm (° C.) relative to unphosphorylated B-Raf(V599E)
T5 construct: 6×His-tag (N); made in house; host or cells: Sf9 insect cells (baculovirus)
T5 sequence (P15056 with tags, fused parts or gaps V600E): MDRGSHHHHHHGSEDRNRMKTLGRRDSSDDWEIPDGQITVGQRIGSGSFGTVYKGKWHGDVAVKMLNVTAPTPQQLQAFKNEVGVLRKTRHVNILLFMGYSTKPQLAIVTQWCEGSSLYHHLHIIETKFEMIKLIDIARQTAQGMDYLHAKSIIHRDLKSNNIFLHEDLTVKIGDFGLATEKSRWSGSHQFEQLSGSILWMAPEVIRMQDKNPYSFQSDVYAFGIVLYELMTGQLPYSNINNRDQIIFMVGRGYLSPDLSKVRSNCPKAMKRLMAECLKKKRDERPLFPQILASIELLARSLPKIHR
Protocol: as §1, §2, §2, §3

p38-alpha kinase = p38-alpha kinase (Homo sapiens, UniProt Q16539); details: time-dependent if IC50 values decrease with reaction time (more than two-fold in four hours)
Chain of p38-alpha kinase (Q16539 whole entry): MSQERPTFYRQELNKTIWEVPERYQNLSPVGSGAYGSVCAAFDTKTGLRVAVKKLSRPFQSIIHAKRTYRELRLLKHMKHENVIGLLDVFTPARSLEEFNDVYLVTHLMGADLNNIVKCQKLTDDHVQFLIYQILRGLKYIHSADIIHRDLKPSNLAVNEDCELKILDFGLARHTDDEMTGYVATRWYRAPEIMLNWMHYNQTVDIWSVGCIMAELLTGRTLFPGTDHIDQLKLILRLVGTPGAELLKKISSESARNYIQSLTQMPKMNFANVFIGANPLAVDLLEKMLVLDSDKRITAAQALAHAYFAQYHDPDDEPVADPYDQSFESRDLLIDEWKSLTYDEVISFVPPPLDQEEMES
Protocol: This dilution can be done automatically on a Tecan (or similar) robotic workstation or performed manually. • 3. […] This step can be performed automatically on a Tecan (or similar) robotic workstation or performed manually. • 4. Incubate at 30° C. or room temp for 2 h, depending on protein stability. • 5. Read at emission wavelength 420 nm upon excitation at 340 nm.

CC(C)(C)c1cc(NC(=O)Nc2cccc3ccccc23)n(-c2ccc(CO)cc2)n1 [Example 72]
ΔTm (° C.) relative to unphosphorylated apo p38 [1]: 11.3 °C | pIC50 [2]: 7.17 | ΔTm (° C.) relative to doubly phosphorylated p38 [3]: 8.1 °C | Competition with ATP (Phospho-p38-alpha kinase): non-competitive with ATP | Ratio IC50s ([4]; doubly phosphorylated vs unphosphorylated p38-alpha, >1.0 = preference for unphosphorylated form): 1.7 | pIC50 ([4]; ~24 nM enzyme, 1.0 uM SKF-86002, read-out: FP IC50 U-p38-alpha): 7.40

CC(C)(C)c1cc(NC(=O)Nc2cccc(Cl)c2Cl)n(-c2ccc3c(c2)CNCC3)n1 [Example 64, 1-(3-tert-butyl-1-(1,2,3,4-tetrahydroisoquinolin-7-yl)-1H-pyrazol-5-yl)-3-(2,3-dichlorophenyl)urea]
ΔTm (° C.) relative to unphosphorylated Abl (Abl kinase): 2.6 °C | pEC50 (c-Abl kinase [5]): 7.37

CC(C)(C)c1cc(NC(=O)Nc2cccc(Cl)c2Cl)n(-c2ccc3c(c2)C[C@@H](C(=O)O)NC3)n1 [Example 65, (3S)-6-(3-tert-butyl-5-(3-(2,3-dichlorophenyl)ureido)-1H-pyrazol-1-yl)-1,2,3,4-tetrahydroisoquinoline-3-carboxylic acid]
pEC50 (c-Abl kinase [5]): 7.09

CC(C)(C)c1cc(NC(=O)Nc2cccc(Cl)c2Cl)n(-c2ccc3c(c2)CCNC3)n1 [Example 66, 1-(3-tert-butyl-1-(1,2,3,4-tetrahydroisoquinolin-6-yl)-1H-pyrazol-5-yl)-3-(2,3-dichlorophenyl)urea]
ΔTm (° C.) relative to unphosphorylated Abl (Abl kinase): 3.2 °C | Effect on binding of fluoroprobe PD 166326 to Abl kinase (c-Abl kinase [6]): concentration-dependent acceleration of the binding of fluoroprobe PD 166326 | pEC50 (c-Abl kinase [5]): 7.52 | ΔTm at 20 µM (V599E Braf kinase): 15.8 °C

CC1(C(=O)O)CC2(C)CC(C)(C1)C(=O)N(Cc1cccc(-n3nc(C(C)(C)C)cc3NC(=O)Nc3ccc(Cl)cc3)c1)C2=O (centres unmarked) [Example 12]
Time-dependent (p38-alpha kinase): No
